# In patent US12116358B2, “Substituted indoles and methods of use thereof” (EPIZYME, INC., priority 2018, dated 2024):
# Read-outs that look alike come from different tables or passages of the source.
# Legend:
# H3K36me3 in A549 cells = test: In-Cell Western (ICW) assay of SETD2 inhibitors (A549 assay); type: cell-based, human; conditions: A549 cells, read-out: SETD2 A549
# In short: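 A549 cells seeded at 4,000/well onto compound and incubated 3 days at 37° C. Methanol-fixed cells stained overnight at 4° C with anti-H3K36me3 (1:1000), then IRDye 800CW secondary with DRAQ5 DNA counterstain. Plates read by Licor imaging at 700 and 800 channels.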
# SETD2(1434-1711) = target: T1, SETD2(1434-1711) (Homo sapiens, UniProt Q9BYW2); test: SETD2 (1434-1711) assay; type: biochemical; conditions: read-out: SETD2 (1434-1711)
# T1 construct: SETD2 (1434-1711) Assay; catalogue N/A
# T1 sequence (Q9BYW2 1434-1711): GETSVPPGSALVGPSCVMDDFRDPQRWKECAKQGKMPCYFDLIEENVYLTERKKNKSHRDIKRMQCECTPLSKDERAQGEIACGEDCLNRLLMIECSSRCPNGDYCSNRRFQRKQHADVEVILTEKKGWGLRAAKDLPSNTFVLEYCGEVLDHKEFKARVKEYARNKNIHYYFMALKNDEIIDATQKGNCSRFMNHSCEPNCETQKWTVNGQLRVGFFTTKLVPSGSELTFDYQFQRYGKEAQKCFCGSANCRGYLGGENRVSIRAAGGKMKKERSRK
Structure (SMILES),IC50 (H3K36me3 in A549 cells) [µM],IC50 (SETD2(1434-1711)) [µM],IC50 (H3K36me3 in A549 cells; Homo sapiens) [µM]
CC(=O)N1CCN(C2CCC(NC(=O)c3cc4c(F)ccc(C)c4[nH]3)C2)CC1 (stereo not drawn) [compound 376],> 2,> 10,–
Cc1ccc(F)c2cc(C(=O)NC3CCCN(CC(=O)N(C)C)C3)[nH]c12 (stereo not drawn) [compound 377],–,> 10,> 2
Cc1ccc(F)c2cc(C(=O)NC3CCCN(CCC(=O)N(C)C)C3)[nH]c12 (stereo not drawn) [compound 378],> 2,> 10,–
Cc1ccc(F)c2cc(C(=O)NC3CCCC(c4cncnc4)C3)[nH]c12 (stereo not drawn) [compound 379],> 2,> 10,–
Cc1ccc(F)c2cc(C(=O)NC3CCCC(c4cncnc4)C3)[nH]c12 (stereo not drawn) [compound 380],> 2,> 10,–
CC(=O)N1CCN(C2CCC(NC(=O)c3cc4c(F)ccc(C)c4[nH]3)CC2)CC1 (stereo not drawn) [compound 383],> 2,> 10,–
CNC(=O)CN1CCCC(NC(=O)c2cc3c(F)ccc(C)c3[nH]2)C1 (stereo not drawn) [compound 384],> 2,> 10,–
CNC(=O)CCN1CCCC(NC(=O)c2cc3c(F)ccc(C)c3[nH]2)C1 (stereo not drawn) [compound 386],> 2,> 10,–
Cc1ccc(F)c2cc(C(=O)NC3CCCC(N4CCCN(C)C(=O)C4)C3)[nH]c12 (stereo not drawn) [compound 387],> 2,> 10,–
Cc1ccc(F)c2cc(C(=O)NC3CCCC(N4CCCOCC4)C3)[nH]c12 (stereo not drawn) [compound 388],> 2,> 10,–
CC(=O)N(C)CCCN1CCCC(NC(=O)c2cc3c(F)ccc(C)c3[nH]2)C1 (stereo not drawn) [compound 389],> 2,> 10,–
Cc1ccc(F)c2cc(C(=O)Nc3cccc4c(N5CCN(C)CC5)[nH]nc34)[nH]c12 [compound 391],–,0.2,2
Cc1ccc(F)c2cc(C(=O)Nc3cccc(-c4ccn(C)n4)c3)[nH]c12 [compound 394],–,0.2,2.1
Cc1ccc(F)c2cc(C(=O)Nc3cccc(C4(N)CC4)c3)[nH]c12 [compound 395],2.2,0.1,–
Cc1cccc2cc(C(=O)Nc3cccc(N4CCN(C(=O)CN)CC4)c3)[nH]c12 [compound 396],2.3,0.3,–
Cc1ccc(F)c2cc(C(=O)Nc3cccc(-c4cn[nH]c4N)c3)[nH]c12 [compound 397],–,0.5,2.4

# Other lines, results leading:
IC50 (H3K36me3 in A549 cells) [µM],IC50 (SETD2(1434-1711)) [µM],IC50 (H3K36me3 in A549 cells; Homo sapiens) [µM],Structure (SMILES)
2.4,0.07,–,CCc1cc(NC(=O)c2cc3c(F)ccc(C)c3[nH]2)cc(N2CCC(N(C)C)CC2)c1 [compound 398]
2.4,1.8,–,Cc1ccc(F)c2cc(C(=O)Nc3cccc(S(C)(=O)=O)c3)[nH]c12 [compound 399]
2.4,0.3,–,Cc1ccc(F)c2cc(C(=O)NC(c3nc4ccccn4c3C)C3CC3)[nH]c12 (stereo not drawn) [compound 400]
2.4,0.03,–,Cc1ccc(F)c2cc(C(=O)Nc3cc(N4CCN(C)CC4)c4cnccc4c3)[nH]c12 [compound 401]
2.5,0.3,–,Cc1cc(-c2ccc(CN3CCOCC3)nc2)cnc1C(NC(=O)c1cc2cccc(C)c2[nH]1)C1CC1 (stereo not drawn) [compound 402]
2.7,2.5,–,Cc1ccc(F)c2cc(C(=O)NC3CCCc4cnccc43)[nH]c12 (stereo not drawn) [compound 403]
–,0.3,2.8,Cc1cc(-c2ncccn2)cnc1C(NC(=O)c1cc2cccc(C)c2[nH]1)C1CC1 (stereo not drawn) [compound 404]
2.8,0.4,–,CCN(CC)CCS(=O)(=O)N1CCN(c2cccc(NC(=O)c3cc4cccc(C)c4[nH]3)c2)CC1 [compound 405]
2.8,0.3,–,Cc1cc(-c2cccnc2)cnc1C(NC(=O)c1cc2cccc(C)c2[nH]1)C1CC1 (stereo not drawn) [compound 406]
2.8,0.3,–,Cc1ccc(N2CCN(C)CC2)cc1NC(=O)c1cc2c(F)ccc(C)c2[nH]1 [compound 407]
–,0.4,2.9,Cc1cccnc1C(Cc1ccccc1)NC(=O)c1cc2cccc(C)c2[nH]1 (stereo not drawn) [compound 408]
